The target in the experiment is GST-tagged truncated human mutant G2019S LRRK2 (Homo sapiens (Human), UniProt Q5S007, G2019S). As to the kind of experiment: LRRK2 G2019S Km ATP LanthaScreen assay. The settings on record: G2019S LRRK2, 134 μM ATP (Km ATP), LRRKtide substrate. The format is biochemical. Here is the method: Unless otherwise noted, all reactions are magnetically allowed to stir, diethyl ether used in the experiments described below is Fisher ACS certified material stabilized with BHT, and “concentrated” and/or “solvent removed under reduced pressure” means evaporating the solvent from a solution or mixture using a rotary evaporator or vacuum pump. Unless otherwise noted, flash chromatography is carried out on a Teledyne Isco (Lincoln, NE), Analogix (Burlington, WI), or Biotage (Stockholm, SWE) automated chromatography system using a commercially available cartridge as the column. Columns may be purchased from Teledyne Isco, Analogix, Biotage, Varian (Palo Alto, CA), or Supelco (Bellefonte, PA) and are usually filled with silica gel as the stationary phase. Reverse phase prep-HPLC conditions, where used, can be found at the end of each experimental section. Aqueous solutions were concentrated on a Genevac (Ipswich, ENG) or by freeze-drying/lyophilization. Unless otherwise noted, all LRRK2 pIC50 data presented in tables refers to the LRRK2 G2019S Km ATP LanthaScreen™ assay (Life Technologies Corp., Carlsbad, CA) that is described in the Biological Assay section.
Sequence of GST-tagged truncated human mutant G2019S LRRK2 (Q5S007 970-2527 G2019S): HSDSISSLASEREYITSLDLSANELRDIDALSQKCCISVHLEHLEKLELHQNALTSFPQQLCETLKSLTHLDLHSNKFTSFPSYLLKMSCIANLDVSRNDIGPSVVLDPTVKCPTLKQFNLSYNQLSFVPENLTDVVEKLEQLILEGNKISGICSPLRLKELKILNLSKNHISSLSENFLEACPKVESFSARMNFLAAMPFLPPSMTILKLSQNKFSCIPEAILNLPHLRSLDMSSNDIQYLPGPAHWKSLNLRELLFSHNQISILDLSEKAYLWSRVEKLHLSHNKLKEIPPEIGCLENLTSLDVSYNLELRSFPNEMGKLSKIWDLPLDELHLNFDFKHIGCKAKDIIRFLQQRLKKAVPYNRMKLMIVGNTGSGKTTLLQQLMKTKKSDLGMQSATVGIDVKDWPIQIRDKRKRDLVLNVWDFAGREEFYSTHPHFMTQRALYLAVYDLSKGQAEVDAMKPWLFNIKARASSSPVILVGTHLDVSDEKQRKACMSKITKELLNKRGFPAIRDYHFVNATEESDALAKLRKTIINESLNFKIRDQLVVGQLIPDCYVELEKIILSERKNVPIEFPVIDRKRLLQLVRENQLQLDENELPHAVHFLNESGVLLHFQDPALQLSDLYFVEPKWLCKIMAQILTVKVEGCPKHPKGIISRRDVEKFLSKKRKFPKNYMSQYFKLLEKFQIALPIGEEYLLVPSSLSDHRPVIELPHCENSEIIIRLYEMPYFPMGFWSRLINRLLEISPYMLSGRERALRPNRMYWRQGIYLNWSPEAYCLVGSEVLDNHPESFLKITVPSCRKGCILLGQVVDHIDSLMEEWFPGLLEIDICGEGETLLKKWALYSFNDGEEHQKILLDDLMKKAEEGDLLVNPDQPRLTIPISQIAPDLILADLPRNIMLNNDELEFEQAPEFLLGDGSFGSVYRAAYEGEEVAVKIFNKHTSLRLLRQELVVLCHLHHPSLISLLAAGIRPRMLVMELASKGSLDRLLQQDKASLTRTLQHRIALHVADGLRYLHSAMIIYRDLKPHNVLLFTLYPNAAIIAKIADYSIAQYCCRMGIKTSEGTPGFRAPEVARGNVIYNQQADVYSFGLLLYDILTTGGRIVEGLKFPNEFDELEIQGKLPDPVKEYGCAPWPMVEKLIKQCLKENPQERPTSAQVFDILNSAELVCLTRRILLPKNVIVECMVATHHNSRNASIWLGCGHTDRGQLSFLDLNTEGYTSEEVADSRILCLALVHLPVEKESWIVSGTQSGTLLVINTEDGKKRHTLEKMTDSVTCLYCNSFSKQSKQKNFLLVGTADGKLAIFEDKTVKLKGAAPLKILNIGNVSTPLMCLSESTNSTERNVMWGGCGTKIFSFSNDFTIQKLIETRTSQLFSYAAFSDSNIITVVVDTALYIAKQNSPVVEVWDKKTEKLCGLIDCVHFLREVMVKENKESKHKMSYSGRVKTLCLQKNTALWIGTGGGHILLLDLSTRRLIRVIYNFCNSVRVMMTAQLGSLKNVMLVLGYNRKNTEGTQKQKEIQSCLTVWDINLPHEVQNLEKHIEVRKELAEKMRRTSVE
The LRRK2 kinase activity reported herein as IC50 values was determined with LanthaScreen™ technology from Life Technologies Corporation (Carlsbad, CA) using GST-tagged truncated human mutant G2019S LRRK2 in the presence of the fluorescein-labeled peptide substrate LRRKtide, also from Life Technologies. The data presented for the […] depending on the specific conditions and reagents used. Assays were performed in the presence of 134 μM ATP (Km ATP). Upon completion, the assay was stopped and phosphorylated substrate detected with a terbium (Tb)-labeled anti-pERM antibody (cat. no. PV4898). The compound dose response was prepared by diluting a 10 mM stock of compound to a maximum concentration of 9.99 μM in 100% dimethylsulfoxide followed by custom fold serial dilution in dimethylsulfoxide nine times. Twenty nanoliters of each dilution was spotted via a Labcyte Echo onto a 384-well black-sided plate (Corning 3575) followed by 15 μl of a 1.25 nM enzyme solution in 1× assay buffer (50 mM Tris pH 8.5, 10 mM MgCl2, 0.01% Brij-35, 1 mM EGTA, 2 mM dithiothreitol, 0.05 mM sodium orthovanadate). Following a 15-minute incubation at room temperature, the kinase reaction was started with the addition of 5 μl of 400 nM fluorescein-labeled LRRKtide peptide substrate and 134 μM ATP solution in 1× assay buffer. The reaction was allowed to progress at ambient temperature for 90 minutes. The reaction was then stopped by the addition of 20 μl of TR-FRET Dilution Buffer (Life Technologies, Carlsbad, CA) containing 2 nM Tb-labeled anti-phospho LRRKtide antibody and 10 mM EDTA (Life Technologies, Carlsbad, CA). After an incubation of 1 h at room temperature, the plate was read on an EnVision multimode plate reader (Perkin Elmer, Waltham, MA) with an excitation wavelength of 337 nm (Laser) and a reading emission at both 520 and 495 nm. Compound IC50s were interpolated from nonlinear regression best fits of the log of the final compound concentration, plotted as a function of the 520/495-nm emission ratio using Activity base. Abase uses a 4 parameter (4P) logistic fit based on the Levenberg-Marquardt algorithm.
A general note: Time-resolved FRET reads energy transfer from a long-lived donor to a nearby acceptor.

The text below walks through data of patent US20250313575A1, “MACROCYCLES AS LRRK2 INHIBITORS, PHARMACEUTICAL COMPOSITIONS, AND USES THEREOF” (Merck Sharp & Dohme LLC, priority 2022, published 2025).

Structures can show the parent of a compound that is named as a salt.

Regarding `Cc1nn(C2CCC2)c2c1OCC1CCCC1Nc1nc(ncc1C(F)(F)F)N2` [Ex-5.4, (10aR,13aR)- or (10aS,13aS)-3-cyclobutyl-1-methyl-8-(trifluoromethyl)-3,4,10a,11,12,13,13a,14-octahydro-10H-5,9-(azeno)cyclopenta[k]pyrazolo[4,3-b][1]oxa[4,6,10]triazacyclotridecine], the “LRRK2 pIC50” value is listed as 6.78.
Same read-out and setting: the value for `Cc1nn(C2CC2)c2c1OC[C@@H]1CC[C@H]1Nc1nc(ncc1Cl)N2` [Ex-2.60, (10aR,12aR)-8-chloro-3-cyclopropyl-1-methyl-3,4,10,10a,11,12,12a,13-octahydro-5,9-(azeno)cyclobuta[k]pyrazolo[4,3-b][1]oxa[4,6,10]triazacyclotridecine] was 9.41; that for `Cc1nn(C2CCC2)c2c1OC[C@H]1COC[C@@H]1Nc1nc(ncc1C(F)(F)F)N2` (single isomer, unassigned) [Ex-2.26, (10aS,13aS)- or (10aR,13aR)-3-cyclobutyl-1-methyl-8-(trifluoromethyl)-3,4,10a,11,13a, 14-hexahydro-10H,13H-5,9-(azeno)furo[3,4-k]pyrazolo[4,3-b][1]oxa[4,6,10]triazacyclotridecine] was 6.77; that for `Cc1nn(C)c2c1OCC[C@@H](C)Nc1nc(ncc1C(F)(F)F)N2` (mixture of isomers) [Ex-2.2, (R)- and (S)-1,3,7-trimethyl-10-(trifluoromethyl)-1,5,6,7,8,14-hexahydro-9,13-(azeno)pyrazolo[4,3-b][1]oxa[4,6,10]triazacyclotridecine] was 5.45.
Still for that read-out and setting: the value for `CC1CCOc2c(C3CC3)nn(C)c2Nc2ncc(C(F)(F)F)c(n2)N1` (single isomer, unassigned) [Ex-2.18, (R)- or (S)-3-cyclopropyl-1,7-dimethyl-10-(trifluoromethyl)-1,5,6,7,8,14-hexahydro-9,13-(azeno)pyrazolo[4,3-b][1]oxa[4,6,10]triazacyclotridecine] was 6.65.
On the same count and under the same terms, the value for `Cn1nc(C2CC2)c2c1OCC1COCC1Nc1nc(ncc1C(F)(F)F)N2` [Ex-1.7, (10aS,13aS)- or (10aR,13aR)-3-cyclopropyl-1-methyl-8-(trifluoromethyl)-1,4,10a,11,13a,14-hexahydro-10H,13H-5,9-(azeno)furo[3,4-k]pyrazolo[3,4-b][1]oxa[4,6,10]triazacyclotridecine] was >10.09; that for `C=CCn1nc(C)c2c1Nc1ncc(C(F)(F)F)c(n1)N[C@@H]1COC[C@H]1CO2` [Ex-5.3, (10aS,13aS)-3-allyl-1-methyl-8-(trifluoromethyl)-3,4,10a,11,13a,14-hexahydro-10H,13H-5,9-(azeno)furo[3,4-k]pyrazolo[4,3-b][1]oxa[4,6,10]triazacyclotridecine] was 7.30.
Regarding `C[C@@H]1CCOc2cn(C)nc2Nc2ncc(Cl)c(n2)N1` [Ex-18.1, (R)-10-chloro-2,7-dimethyl-2,5,6,7,8,14-hexahydro-9,13-(azeno)pyrazolo[4,3-b][1]oxa[4,6,10]triazacyclotridecine], the “LRRK2 pIC50” value worked out at 7.94.
With `COC1CC(n2nc(C)c3c2Nc2ncc(C(F)(F)F)c(n2)NC2COCC2CO3)C1` (single isomer, unassigned) [Ex-2.31, (10aS,13aS)- or (10aR,13aR)-3-((1R,3S)-3-methoxycyclobutyl)-1-methyl-8-(trifluoromethyl)-3,4,10a,11,13a,14-hexahydro-10H,13H-5,9-(azeno)furo[3,4-k]pyrazolo[4,3-b][1]oxa[4,6,10]triazacyclotridecine], the IC50 (read-out: LRRK2 pIC50 (converted)) is 288 nM.
In the case of `Cc1nn(C2CCC2)c2c1OC[C@@H]1COC[C@H]1Nc1cc(ncc1C(F)(F)F)N2` [Ex-13.1, (10aR,13aR)-3-Cyclobutyl-1-methyl-8-(trifluoromethyl)-3,4,10a,11,13a,14-hexahydro-10H,13H-5,9-(metheno)furo[3,4-k]pyrazolo[4,3-b][1]oxa[4,6,10]triazacyclotridecine, TFA], the “LRRK2 pIC50” value is given as >10.09.
With `Cc1nn(C2CCC2)c2c1OCC1COCCC1Nc1nc(ncc1C(F)(F)F)N2` [Ex-2.35, (4aR,16aR)- and (4aS,16aS)-12-cyclobutyl-14-methyl-7-(trifluoromethyl)-3,4,4a,5,11,12,16,16a-octahydro-1H-6,10-(azeno)pyrano[4,3-k]pyrazolo[4,3-b][1]oxa[4,6,10]triazacyclotridecine], the “LRRK2 pIC50” value came to 8.56.
Still for that read-out and setting: under `Cc1nn(C2CC2)c2c1O[C@@H]1CC[C@@H]1CNc1nc(ncc1C(F)(F)F)N2` [Ex-2.86, (11aR,13aR)- or (11aS,13aS)-3-cyclopropyl-1-methyl-8-(trifluoromethyl)-3,4,10,11,11a,12,13,13a-octahydro-5,9-(azeno)cyclobuta[l]pyrazolo[4,3-b][1]oxa[4,6,10]triazacyclotridecine] stands 8.13.
The same measure, in the same setting: the value for `Cn1nc(C2CC2)c2c1OCC1CCC1Nc1nc(ncc1C(F)(F)F)N2` [Ex-1.10, (10aR,12aR)- or (10aS,12aS)-3-cyclopropyl-1-methyl-8-(trifluoromethyl)-1,4,10,10a,11,12,12a,13-octahydro-5,9-(azeno)cyclobuta[k]pyrazolo-[3,4-b][1]oxa[4,6,10]triazacyclo-tridecine] was 6.58; that for `Cc1nn(C2CCC2)c2c1OC[C@@H]1CC(F)(F)C[C@H]1Nc1nc(ncc1C(F)(F)F)N2` [Ex-4.2, 3-Cyclobutyl-12,12-difluoro-1-methyl-8-(trifluoromethyl)-3,4,10a,11,12,13,13a,14-octahydro-10H-5,9-(azeno)cyclopenta[k]pyrazolo[4,3-b][1]oxa[4,6,10]triazacyclotridecine] was 9.51.
Still for that read-out and setting: under `Cc1nn(C2CCC2)c2c1OC[C@@H]1COC[C@H]1Nc1cc(ncc1F)N2` [Ex-13.8, (10aR,13aR)-3-cyclobutyl-8-fluoro-1-methyl-3,4,10a,11,13a,14-hexahydro-10H,13H-5,9-(metheno)furo[3,4-k]pyrazolo[4,3-b][1]oxa[4,6,10]triazacyclotridecine] stands <5.00; under `Cc1nn(C(C)C)c2c1OCCC(C)Nc1nc(ncc1C(F)(F)F)N2` (single isomer, unassigned) [Ex-2.9, (R)- or (S)-1-isopropyl-3,7-dimethyl-10-(trifluoromethyl)-1,5,6,7,8,14-hexahydro-9,13-(azeno)pyrazolo[4,3-b][1]oxa[4,6,10]triazacyclotridecine], 6.31; under `Cc1nn(C(C)(C)C#N)c2c1Nc1ncc(C(F)(F)F)c(n1)N[C@@H]1CCC1CO2` (stereo partly drawn) [Ex-1.1, 2-Methyl-2-((10aR,12aR)-3-methyl-8-(trifluoromethyl)-10,10a,11,12,12a,13-hexahydro-5,9-(azeno)cyclobuta[k]pyrazolo[3,4-b][1]oxa[4,6,10]triazacyclotridecin-1 (4H)-yl)propanenitrile], >10.09.
For `Cc1nn(C2CCC2)c2c1OC1COC[C@H]1CNc1nc(ncc1C(F)(F)F)N2` (single isomer, unassigned) [Ex-2.81, (11aR,14aS) or (11aS,14aR)-3-cyclobutyl-1-methyl-8-(trifluoromethyl)-3,4,10,11,11a,12,14,14a-octahydro-5,9-(azeno)furo[3,4-1]pyrazolo[4,3-b][1]oxa[4,6,10]triazacyclotridecine], the “LRRK2 pIC50” value was determined as 5.99.
